In publication PMC9254247, “Dual-sensitive antibacterial peptide nanoparticles prevent dental caries” (Theranostics, 2022) one finds MBIC50, IC50 and degradation by pepsin data, which are given here for two compounds.

No end group written: not given here.

For one data set, the system named is S. mutans UA159 biofilm. Kind of data set: Minimum biofilm inhibition concentration (MBIC50), MTT. It counts as cell-based, Streptococcus mutans. The settings on record: 24 h. How it is done: Characterization analysis of pHly -1 NPs at different pHs. The morphology of pHly-1 NPs at pH 4.5 and 7.0were analyzed by TEM and AFM, respectively 3,4. TEM images were taken by a Tecnai G2 F20 microscope with an accelerating voltage of 100 kV. The final concentration of TEM samples of pHly -1 NPs was 100 μM. An 8 μL TEM sample was pipetted onto the carbon-coated copper grid surface for 3 min and removed by filter paper. Then, 8 μ L of 2 wt % uranyl acetate was dripped onto the grid for staining 3 min. After removing the droplet with filter paper, the grid was dried in a desiccator before measurement. […]
The secondary structure of pHly-1 NPs in different solutions at pH 4.5 and 7.0 was determined by Jasco-810 spectropolarimeter using 2 mm quartz slides at 25 °C.
According to the method reported in the literature5 to prepare l iposome required in the secondary structure test. […] All spectra were recorded with a wavelength interval of 0.5 nm. […] In addition, Zeta (ζ ) potentials and hydrodynamic sizes of pHly-1 NPs were measured using a Zetasizer (Malvern Instruments, UK). […]
RNA- seq Analysis. […] T he quality and quantity of the RNA were assessed by NanoDrop 2000/2000c (Thermo Scientific, Wilmington, DE, USA). RNA integrity number (RIN) was analyzed by Agilent 2100 Bioanalyzer (Agilent Technologies, Santa Clara, CA, USA). […] The cleaned reads were mapped to the S.mutans reference genome using Rockhooper26. […]

In data set [1] the test system is human gingival fibroblast (HGF-1). Put plainly: Cytotoxicity, CCK-8 assay. It counts as cell-based. The settings on record: HGF1. The source says: Figure S12. H&E staining of gingival, palatal and gastric tissues(Scale bar: 100
Supplementary Fig.13. The toxicity of pHly -1 NPs to human gingival fibroblast
(HGF-1) was assessment by CCK-8 assay. DMEM medium(10 % FBS) was used
for cell culture and DMEM m edium was used for drug preparation in toxicity tests.
The All of the data are represented as average±SD. Each experiment consists of 3 […]

The next data set relates to pepsin. Put plainly: Degradation by pepsin (RP-HPLC). It counts as in vitro ADME. The settings on record: peptide 100 µg/mL, pepsin 10 µg/mL, Tris buffer pH 4.0, 37 °C, 5 min, MALDI-TOF MS. How it is done: Figure 7 The biosafety of pHly-1 NPs to normal oral and gastric organoids. […] (B and C) The representative gastric organoid images (B) and oral organoid images (C) after 500 µM pHly-1 NPs or CHX treatment. (D and E) the viability of gastric (D) and oral (E) organoids after treatment with pHly-1 NPs or CHX was assessed by CellTiter-Blue cell viability assay. Scale bar, 100 µm. Each experiment was repeated 3 times. (F) RP-HPLC analysis of pHly-1 NPs degradation by pepsin. pHly-1 NPs (100 µg/mL) was incubated with pepsin (10 µg/mL) in Tris buffer (pH 4.0) at 37 °C for 5 min and submitted to RP-HPLC analysis. The HPLC fractions were analyzed by MALDI-TOF MS. The black arrow represents the intact peptide of pHly-1 NPs and the molecular weight is 2865.1 Da (Figure S14). After 5 min of pepsin hydrolysis, the molecular weight of the mainly peptide fragment is 1650.6 Da (Figure S14). All of the data are represented as average ± s.d.

Consider `[H]/N=C(\N/C(=N/[H])NCCCCCCNC(=N)NC(=N)Nc1ccc(Cl)cc1)Nc1ccc(Cl)cc1` [CHX, chlorhexidine], for which the MBIC50 in the data set on S. mutans UA159 biofilm (pH 5.5, BHI with 1% sucrose) stood at 0.6 µM; in the data set with S. mutans UA159 biofilm (pH 7.0, BHI with 1% sucrose) it was 0.8 µM. In data set [1], this compound had a 50% inhibitory concentration (IC50) of 4.9 µM.

“KIWFHAMHIIAHFIAHQHLHQHL-NH2 [pHly-1 NPs]”: in the data set on pepsin, the degradation by pepsin result is on record as “rapidly degraded”.
